Patent US5277897A, “In vivo enhancement of cellular accumulation of lipophilic cationic organometallic compounds by reduction of intramembrane potential” (Brigham and Women's Hospital, priority 1992, dated 1994)

Tests used:
[1] = tested on: cultured chick heart cells; assay: Effect of MSA on Tc-MIBI net accumulation (FIG. 3); assay type: cell-based; settings: TPB 10^-5 M, n=3
Protocol: FIG. 3. Effect of MSA on Tc-MIBI net accumulation. Preparations were incubated for the times indicated in Tc-MIBI loading buffer containing 5.4 mM KCl (.quadrature., .smallcircle.) or 5.4 mM K-MSA ( , ·; prepared by equimolar substitution of K-MSA KCl) in the absence (.quadrature., ) or presence (.smallcircle., ·) of TPB (10^-5 M). Each point represents the mean ±SEM of 3 determinations.
Control buffer was a modified Earle's balanced salt solution (MEBSS) with the following composition (mN) Na^30, 145; K^+, 5.4; Ca^2, 1.2; Mg^2+, 0.8; Cl, 152; H2 PO4, 0.8; SO4^2-, 0.8; dextrose, 5.6; HEPES, 4.0; and bovine calf serum, 1% (v/v); […]; 37° C. K-methanesulfonate was made by titration of methanesulfonic acid with KOH (Piwnica-Worms, D., et al., J. Gen. Physiol. 81:731-748 (1983)) and replaced […] in some solutions by equimolar substitution where indicated. Natetraphenylborate, CCCP, bumetanide and valinomycin were dissolved into DMSO prior to addition to buffer. DMSO alone has no significant affect on contractile activity, action potential configuration (Lieberman, M., et al., Dev. Biol. 31:380-403 (1973)) or Tc-MIBI uptake kinetics (Piwnica-Worms, D., et al., Circ. (in press)).
(§1) Monolayers of spontaneously contractile chick ventricular myocardial cells were obtained from disaggregated 10-day old chick embryo hearts by a slight modification of previously published methods (Horres, C. R., et al., In Pinson, A. (ed.), The Heart Cell in Culture, Boca Raton, CRC Press, pp. 77-108 (1987)). […] Cells were centrifuged at 400 g for 10 minutes, resuspended and combined in culture medium, counted with a hemocytometer and diluted to yield a suspension of 5×10^5 cells/ml. […]
Radioactive uptake methods have been described in detail (Piwnica-Worms, D., et al, Circ. (in press). Briefly, coverslips with confluent cells were removed from culture media and pre-equilibrated for 40-60 seconds in MEBSS buffer. Uptake and retention experiments were initiated by immersion of coverslips in 60 mm glass Pyrex dishes containing loading solution consisting of buffer with 0.1-0.6 nM [^99m Tc-MIBI] (0.01-0.4 Ci/nmole; 25-100 uCi/ml). Preparations were removed at various times and rinsed three times in 25 ml volumes of ice-cold (2° C.) isotope-free buffer for 8 seconds each to clear extracellular spaces. Preparations and aliquots of the loading buffer and stock solutions were counted in a well-type sodium iodide gamma counter after which cell protein on each coverslip was extracted in 1% sodium dodecylsulfate with 10 mM sodium borate and assayed by the method of Lowry (Lowry, O. H., et al., J. Biol. Chem. 193:265-275 (1951)). […]

[2] = tested on: cultured chick heart cells; assay: Ko-dependence of Tc-MIBI net uptake in the absence and presence of TPB (FIG. 5); assay type: cell-based; settings: absence of TPB; more pronounced in presence of TPB
Protocol: FIG. 5. Ko -dependence of Tc-MIBI net uptake in the absence ( ) and presence (.quadrature.) of TPB (10^-5 M). Peak accumulation of Tc-MIBI was determined in preparations incubated in loading buffers containing the indicated Ko (equimolar replacement of NaCl by KCl) for 40 minutes (control) or for 20 minutes (+TPB). Ko -induced cell volume changes were prevented by addition of bumetanide (10^-5 M) to each buffer. Each point is the mean ±SEM of 3 determinations. Solid lines have no theoretical significance. The dashed line represents the Tc-MIBI content expected at each Ko assuming an intracellular/extracellular Tc-MIBI concentration ratio equal to the Ki /Ko ratio.
as §1, with “(1987)). Hearts were trimmed of connective tissue and atria, finely minced and serially exposed to 0.024% (w/v) trypsin in Ca^2+ - and Mg^2+ - free Earle's salt solution for 7 minutes at 37° C.” for “(1987)).”

With [C-]#[N+]CC(C)(C)OC.[C-]#[N+]CC(C)(C)OC.[C-]#[N+]CC(C)(C)OC.[C-]#[N+]CC(C)(C)OC.[C-]#[N+]CC(C)(C)OC.[C-]#[N+]CC(C)(C)OC.[Tc] [Tc-MIBI, hexakis(methoxyisobutylisonitrile)technetium(I)] the Tc-MIBI uptake ([1]; 130 mM K-MSA buffer, P=0.01) was 79.3±1.1 fmol Tc-MIBI/mg protein per nM, the Tc-MIBI uptake ([1]; 130 mM KCl buffer + bumetanide 10^-5 M) was 63.7±3.2 fmol Tc-MIBI/mg protein per nM and the “nominal intracellular/extracellular accumulation ratio vs Ki/Ko ratio” value [2] was “greater than those expected from the Ki /Ko ratios in the absence of TPB”.
